Test results from patent US20180362485A1, “N-HYDROXYFORMAMIDE COMPOUNDS AND COMPOSITIONS COMPRISING THEM FOR USE AS BMP l, TLL1 AND/OR TLL2 INHIBITORS” (GlaxoSmithKline Intellectual Property (No. 2) Limited, priority 2015, published 2018).
Structures can show the parent of a compound that is named as a salt.

test system: deposition of mature collagen; assay: Cell-based inhibition assay of mature collagen deposition (immunostaining); conditions: Cardiac fibroblast; human cardiac fibroblasts, immunostaining of mature collagen I; read-out: pIC50, mature collagen cellular inhibition assay (converted)
Procedure: (§1) An adaptation of the collagen deposition assay described by Chen, C. Z. C., et al., British Journal of Pharmacology, 2009, 158, 1196-1209 is used to examine effect of compounds on procollagen I processing and collagen deposition. In the adapted assay, human cardiac fibroblasts are utilized. Processing of procollagen I is determined by a PICP ELISA assay and deposition of mature collagen is determined by immunostaining.
(§2) Human cardiac fibroblasts are cultured and maintained until passage 6 in FGM-3 media (Lonza, #CC-3132) in a 37° C. humidified incubator with 5% CO2. They are then seeded in 96-well black wall, clear bottom plates at 10,000 to 15,000 cells per well in eagle's minimum essential media (EMEM, ATCC #30-2003) containing 10% fetal bovine serum (FBS, Life Technologies #10082147), 1% Glutamax (Life Technologies #35050061) and 1% Penicillin and Streptomycin (Life Technologies #15070063). These cultures are placed in 37° C. incubator. The next day, media is removed by aspiration and cells are rinsed with phosphate buffered saline. Crowding media (also called ficoll media) is prepared by adding 112.5 mg/ml of ficoll70 and 75 mg/ml ficoll400 (GE healthcare #17-0310-10 and 17-0300-10, respectively), 100 μM ascorbic acid, 1% Glutamax and 1% Penicillin and Streptomycin to EMEM media. Test compounds (dissolved in DMSO) are diluted into crowding media and then added to the cells. Final concentration of DMSO in crowding media is less than 0.3%. Cells are treated for 24 to 48 hr in a 37° C. incubator. At the end of the treatment period, cell media are collected. The level of PICP in the media is determined by a PICP ELISA assay (Quidel #8003) following the manufacturer's protocol. Potencies of test compounds are calculated by fitting PICP levels, relative to untreated controls, to log (inhibitor) vs. response equation using Graphpad Prism software 5.0 and expressed as pIC50.
For some compounds, deposition of mature collagen is measured by immunostaining in addition to PICP levels. At the end of the treatment period, cells on culture plate are fixed with 100% methanol (prechilled to −20° C.) for 10 min. Then the cells are immunostained with mouse anti-mature collagen I antibody (1:500 dilution, Sigma#C2456), anti-mouse secondary antibody Alexa647 (1:500 dilution, Invitrogen#A21236) and Hoechst (for nuclei, 2 μg/ml, Invitrogen#H3596). Fluorescent image acquisition is done using the Operetta High Content Imaging system (Perkin Elmer). For each image field, the intensity of mature collagen staining is normalized with the number of nuclei. Normalized collagen levels are used to calculate the potency of test compounds with Graphpad Prism software, as described above.

Row | Compound | IC50 [nM]
1 | CCCCC[C@@H](C(=O)NCNC(=O)c1ccc(-c2ccc(C(=O)N[C@@H](CC(=O)O)C(=O)O)c(OCC(=O)O)c2)o1)[C@@H](CC)N(O)C=O [WO2015/104684 Example 126, (S)-2-(2-(carboxymethoxy)-4-(5-((((R)-2-((R)-1-(N-hydroxyformamido)propyl)heptanamido)methyl)carbamoyl)furan-2-yl)benzamido)succinic acid] | < 1000
2 | CCCCC[C@@H](C(=O)NCNC(=O)c1ccc(-c2cc(OCC)cc(P(=O)(O)O)c2)o1)[C@@H](CC)N(O)C=O [WO2015/104684 Example 96, (3-ethoxy-5-(5-((((R)-2-((R)-1-(N-hydroxyformamido)propyl)heptanamido)methyl)carbamoyl)furan-2-yl)phenyl)phosphonic acid] | < 1000
3 | CCCCC[C@@H](C(=O)NCNC(=O)c1ccc(-c2ccc(C(=O)NCP(=O)(O)O)c(OCC)c2)o1)[C@@H](CC)N(O)C=O [WO2015/104684 Example 139, ((2-ethoxy-4-(5-((((R)-2-((R)-1-(N-hydroxyformamido)propyl)heptanamido)methyl)carbamoyl)furan-2-yl)benzamido)methyl)phosphonic acid] | < 1000
4 | CCCCC[C@@H](C(=O)NCNC(=O)c1ccc(-c2ccc(C(=O)N[C@@H](CC(=O)O)C(=O)O)c(OCC)c2)o1)[C@@H](CC)N(O)C=O [WO2015/104684 Example 74, (S)-2-(2-ethoxy-4-(5-((((R)-2-((R)-1-(N-hydroxyformamido)propyl)heptanamido)methyl)carbamoyl)furan-2-yl)benzamido)succinic acid] | < 1000

test system: Generation of Procollagen I C-Terminal Propeptide (PICP); assay: Cell-based inhibition assay of generation of procollagen I C-terminal propeptide (PICP), PICP ELISA; conditions: Cardiac fibroblast, human cardiac fibroblasts, 24 to 48 hr, read-out: pIC50, PICP cellular inhibition assay (converted)
Procedure: as §1, §2

Row | Compound | IC50 [nM]
5 | CCCCC[C@@H](C(=O)NCNC(=O)c1ccc(-c2cc(OCC)cc(P(=O)(O)Oc3ccccc3)c2)o1)[C@@H](CC)N(O)C=O [Example 400, Phenyl Hydrogen (3-ethoxy-5-(5-((((R)-2-((R)-1-(N-hydroxyformamido)propyl)heptanamido)methyl)carbamoyl)furan-2-yl)phenyl)phosphonate, Ammonia Salt] | < 398
6 | CCCCC[C@@H](C(=O)NCNC(=O)c1ccc(-c2ccc(C(=O)N[C@@H](CC(=O)O)C(=O)OCOC(=O)c3ccccc3)c(OCC)c2)o1)[C@@H](CC)N(O)C=O [Example 116, (S)-4-((benzoyloxy)methoxy)-3-(2-ethoxy-4-(5-((((R)-2-((R)-1-(N-hydroxyformamido)propyl)heptanamido)methyl)carbamoyl)furan-2-yl)benzamido)-4-oxobutanoic acid] | < 398
7 | CCCCC[C@@H](C(=O)NCNC(=O)c1ccc(-c2ccc(C(=O)N[C@@H](CC(=O)O)C(=O)OCC)c(OCC)c2)o1)[C@@H](CC)N(O)C=O [Example 113, (S)-4-ethoxy-3-(2-ethoxy-4-(5-((((R)-2-((R)-1-(N-hydroxyformamido)propyl)heptanamido)methyl)carbamoyl)furan-2-yl)benzamido)-4-oxobutanoic acid] | < 398
8 | CCCCC[C@@H](C(=O)NCNC(=O)c1ccc(-c2cc(OCC)cc(P(=O)(OCOC(C)=O)OCOC(C)=O)c2)o1)[C@@H](CC)N(O)C=O [Example 115, (((3-ethoxy-5-(5-((((R)-2-((R)-1-(N-hydroxyformamido)propyl)heptanamido)methyl)carbamoyl)furan-2-yl)phenyl)phosphoryl)bis(oxy))bis (methylene) diacetate] | < 398
9 | CCCCC[C@@H](C(=O)NCNC(=O)c1ccc(-c2ccc(C(=O)OCC)cc2)o1)[C@@H](CC)N(O)C=O [Example 100, ethyl 4-(5-((((R)-2-((R)-1-(N-hydroxyformamido)propyl)heptanamido)methyl)carbamoyl)furan-2-yl)benzoate] | < 398
10 | CCCCC[C@@H](C(=O)NCNC(=O)c1ccc(-c2ccc(C(=O)N[C@@H](CC(=O)OCC)C(=O)OCC)c(OCC)c2)o1)[C@@H](CC)N(O)C=O [Example 143, (S)-diethyl 2-(2-ethoxy-4-(5-((((R)-2-((R)-1-(N-hydroxyformamido)propyl)heptanamido)methyl)carbamoyl)furan-2-yl)benzamido)succinate] | < 398
11 | CCCCC[C@@H](C(=O)NCNC(=O)c1ccc(-c2cc(OCC)cc(P(=O)(O)OCOC(=O)OC(C)C)c2)o1)[C@@H](CC)N(O)C=O [Example 302, (((3-ethoxy-5-(5-((((R)-2-((R)-1-(N-hydroxyformamido)propyl)heptanamido)methyl)carbamoyl)furan-2-yl)phenyl) (hydroxy)phosphoryl)oxy)methyl isopropyl carbonate] | < 398
12 | CCCCC[C@@H](C(=O)NCNC(=O)c1ccc(-c2ccc(C(=O)OCCN(C)C)cc2)o1)[C@@H](CC)N(O)C=O [Example 104, 2-(dimethylamino) ethyl 4-(5-((((R)-2-((R)-1-(N-hydroxyformamido)propyl)heptanamido)methyl)carbamoyl)furan-2-yl)benzoate] | < 398
13 | CCCCC[C@@H](C(=O)NCNC(=O)c1ccc(-c2ccc(C(=O)N[C@@H](CC(=O)O)C(=O)OC(C)(C)C)c(OCC)c2)o1)[C@@H](CC)N(O)C=O [Example 114, (S)-4-(tert-butoxy)-3-(2-ethoxy-4-(5-((((R)-2-((R)-1-(N-hydroxyformamido)propyl)heptanamido)methyl)carbamoyl)furan-2-yl)benzamido)-4-oxobutanoic acid] | < 398
14 | CCCCC[C@@H](C(=O)NCNC(=O)c1ccc(-c2ccc(C(=O)OCCCC)cc2)o1)[C@@H](CC)N(O)C=O [Example 101, butyl 4-(5-((((R)-2-((R)-1-(N-hydroxyformamido)propyl)heptanamido)methyl)carbamoyl)furan-2-yl)benzoate] | < 398
15 | CCCCC[C@@H](C(=O)NCNC(=O)c1ccc(-c2ccc(C(=O)N[C@@H](CC(=O)OC(C)(C)C)C(=O)OC(C)(C)C)c(OCC)c2)o1)[C@@H](CC)N(O)C=O [Example 112, (S)-di-tert-butyl 2-(2-ethoxy-4-(5-((((R)-2-((R)-1-(N-hydroxyformamido)propyl)heptanamido)methyl)carbamoyl)furan-2-yl)benzamido) succinate] | < 398
16 | CCCCC[C@@H](C(=O)NCNC(=O)c1ccc(-c2ccc(C(=O)N[C@@H](CC(=O)OC)C(=O)OC)c(OCC(=O)OC)c2)o1)[C@@H](CC)N(O)C=O [Example 142, (S)-dimethyl 2-(4-(5-((((R)-2-((R)-1-(N-hydroxyformamido)propyl)heptanamido)methyl)carbamoyl)furan-2-yl)-2-(2-methoxy-2-oxoethoxy)benzamido)succinate] | < 398
